{
  "source": "paper PMC4318582",
  "about": "“Chemotherapy of Second Stage Human African Trypanosomiasis: Comparison between the Parenteral Diamidine DB829 and Its Oral Prodrug DB868 in Vervet Monkeys” (PLoS Neglected Tropical Diseases, 2015)",
  "origin": "cited, not measured here",
  "key": {"[1]": {"test_system": "T. b. rhodesiense STIB900", "design": "method as in PMID 19620327", "details": "read-out: in vitro IC50; cited from earlier work"}, "[2]": {"test_system": "T. b. brucei GVR35", "design": "method as in PMID 19620327", "details": "cited from earlier work"}},
  "data": [
    {"smiles": "N=C(N)c1ccc(-c2ccc(-c3ccc(C(=N)N)cn3)o2)nc1", "note": "[DB829, 2,5-bis(5-amidino-2-pyridyl)furan]", "values": [
      {"measurement": "IC50", "setting": "[1]", "value": 0.014, "unit": "µM"},
      {"measurement": "efficacy in the murine model of second stage HAT", "setting": "[2]", "value": "fully curative"}
    ]}
  ]
}
